Where two headings read alike, the source gives them in different places.
Assays:
ov-NNMT NCI-H82 cell = experiment: CellTiter-Glo cell viability, ov-NNMT NCI-H82 cell (NNMT overexpressed); assay type: cell-based, human; conditions: intracellular ATP, read-out: inhibitory effect on OV-NNMT NCI-H82 (IC50)
SW48 = experiment: CellTiter-Glo cell viability, tumor cell line SW48; assay type: cell-based; conditions: SW48, 72 h; human colon adenocarcinoma cell; 3 days of culture; read-out: inhibitory effect on SW48 (IC50)
Experimental: (§1) Cell viability was detected using the Promega CellTiter-Glo kit, cell viability was determined by directly measuring intracellular ATP content. In the experiment, the IC50 value of the compounds prepared in the Examples of the present invention on various tumor cell lines was detected.
(§2) Each tumor cell was cultured in relevant medium. After cell passage, the gradient diluted compounds prepared in the Examples of the present invention was added. After 3 days of culture, the relevant IC50 (50% inhibiting concentration) was measured. The name, source and culture conditions of each tumor cell line were as follows:
Cell line SW48 (ATCC, No. CCL-231) was cultured in 10% fetal bovine serum-containing Leibovitz's L-15 medium (+P/S).

SF-126 = experiment: CellTiter-Glo cell viability, tumor cell line SF-126; assay type: cell-based; conditions: SF-126, 72 h, read-out: inhibitory effect on SF-126 (IC50); human glioblastoma multiforme cell; 3 days of culture
Experimental: as §1, §2
Cell line SF126 (JCRB, No. IFO50286) was cultured in 10% fetal bovine serum-containing EMEM medium (+P/S).
(§3) Cell viability was detected using the Promega CellTiter-Glo kit, cell viability was determined by directly measuring intracellular ATP content. In the experiment, the IC50 value of the compounds prepared in the Examples of the present invention on various brain tumor cell lines was detected.

D341 Med = experiment: CellTiter-Glo cell viability, brain tumor cell line D341 Med; assay type: cell-based; conditions: Homo sapiens, 72 h, cerebellar medulloblastoma cell, 3 days of culture, read-out: inhibitory effect on D341 Med (IC50)
Experimental: as §3, §2
Cell line D341 Med (ATCC, No. HTB-187) was cultured in 20% fetal bovine serum-containing EMEM medium (+P/S).

NB-1 = experiment: CellTiter-Glo cell viability, brain tumor cell line NB-1; assay type: cell-based; conditions: Homo sapiens, NB1, 72 h; brain neuroblastoma cell; 3 days of culture; read-out: inhibitory effect on NB-1 (IC50)
Experimental: as §3
as §2, with “follows: […]” for “follows:”

MDA-MB-453 = experiment: CellTiter-Glo cell viability, tumor cell line MDA-MB-453; assay type: cell-based; conditions: Homo sapiens, MDA-MB-453, 72 h; breast cancer cell; 3 days of culture; read-out: inhibitory effect on MDA-MB-453 (IC50)
Experimental: as §1
as §2, with “follows: […]” for “follows:”

Kelly = experiment: CellTiter-Glo cell viability, brain tumor cell line Kelly; assay type: cell-based; conditions: Homo sapiens, 72 h, brain neuroblastoma cell, 3 days of culture, read-out: inhibitory effect on Kelly (IC50)
Experimental: as §3, §2
Cell line Kelly (ECACC, No. 92110411) was cultured in 10% fetal bovine serum and 2 mM glutamine-containing RPMI1640 medium.

786-O = experiment: CellTiter-Glo cell viability, tumor cell line 786-O; assay type: cell-based; conditions: Homo sapiens, 786-0, 72 h; clear cell renal cell adenocarcinoma cell; 3 days of culture; read-out: inhibitory effect on 786-O (IC50)
Experimental: as §1, §2
Cell line 786-0 (ATCC, No. CRL-1932) was cultured in 10% fetal bovine serum-containing RPMI164B medium (+P/S).

GB-1 = experiment: CellTiter-Glo cell viability, tumor cell line GB-1; assay type: cell-based; conditions: GB-1, 72 h; human brain glioblastoma cell; 3 days of culture; read-out: inhibitory effect on GB-1 (IC50)
Experimental: as §1, §2
Cell line GB-1 (JCRB, No. IFO50489) was cultured in 10% fetal bovine serum-containing DMEM medium (+P/S).
as §3

G-401 = experiment: CellTiter-Glo cell viability, tumor cell line G-401; assay type: cell-based; conditions: G-401, 72 h; human renal carcinoma Wilms cell; 3 days of culture; read-out: inhibitory effect on G-401 (IC50)
Experimental: as §1, §2
Cell line G-401 (ATCC, No. CRL-1441) was cultured in 10% fetal bovine serum-containing McCoy's 5a medium (+P/S).

CFPAC-1 = experiment: CellTiter-Glo cell viability, tumor cell line CFPAC-1; assay type: cell-based; conditions: CFPAC-1, 72 h; human pancreatic cancer cell; 3 days of culture; read-out: inhibitory effect on CFPAC-1 (IC50)
Experimental: as §1, §2
Cell line CFPAC-1 (ATCC, No. CRL-1918) was cultured in 10% fetal bovine serum-containing IMDM medium (+P/S).

NCI-H82 = experiment: CellTiter-Glo cell viability, tumor cell line NCI-H82; assay type: cell-based; conditions: NCI-H82, 72 h; human small cell lung cancer cell; 3 days of culture; read-out: inhibitory effect on NCI-H82 (IC50)
Experimental: as §1, §2
Cell line NCI-H82 (ATCC, No. HTB-175) was cultured in 10% fetal bovine serum-containing RPMI1640 medium (+P/S).

Con-NCI-H82 cell = experiment: CellTiter-Glo cell viability, Con-NCI-H82 cell (empty-vector control); assay type: cell-based, human; conditions: Homo sapiens, NCI-H82, NCI-H82 transfected with empty virus vector (control), intracellular ATP, read-out: inhibitory effect on Con-NCI-H82 (IC50)
sh-DNMT1 NCI-H82 cell = experiment: CellTiter-Glo cell viability, sh-DNMT1 NCI-H82 cell (DNMT1 knocked down); assay type: cell-based, human; conditions: Homo sapiens, NCI-H82, NCI-H82 with DNMT1 knocked down by shRNA, intracellular ATP, read-out: inhibitory effect on sh-DNMT1 NCI-H82 (IC50)
[1] = Homo sapiens, NCI-H82, NCI-H82 overexpressing NNMT protein

Compound | IC50 (ov-NNMT NCI-H82 cell; [1]) [µM] | IC50 (SW48) [µM] | IC50 (SF-126) [µM] | IC50 (D341 Med) [µM] | IC50 (NB-1) [µM] | IC50 (MDA-MB-453) [µM] | IC50 (Kelly) [µM] | IC50 (786-O) [µM] | IC50 (GB-1) [µM] | IC50 (G-401) [µM] | IC50 (CFPAC-1) [µM] | IC50 (NCI-H82) [µM] | IC50 (Con-NCI-H82 cell) [µM] | IC50 (sh-DNMT1 NCI-H82 cell) [µM] | IC50 (ov-NNMT NCI-H82 cell; NCI-H82 overexpressing NNMT protein) [µM]
COc1ccc2c(c1OC)CN1CCc3cc4c(cc3C1=C2Cc1ccc(OC(F)(F)F)cc1)OCO4 [AB31866] | 1.86 | 1.96 | 20.1 | 1.54 | 2.19 | 2.32 | 1.32 | 15.6 | 10.5 | 1.08 | 12.4 | 0.82 | 0.82 | 3.48 | 
COc1ccc2c(c1OC)C(C1CCCCC1)N1CCc3cc4c(cc3C1=C2)OCO4 (centres unmarked) [AB31893] | 4.12 | 1.85 | 12.3 | 1.46 | 1.88 | 1.68 | 2.09 | 9.72 | 15.5 | 1.44 | 10.9 | 1.12 | 1.12 | 5.68 | 
COc1ccc2c(c1OC)C(C1CCCC1)N1CCc3cc4c(cc3C1=C2)OCO4 (centres unmarked) [AB31900] |  | 1.28 | 20.1 | 0.98 | 0.88 | 1.46 | 1.12 | 15.7 | > 30 | 1.32 | 18.3 | 1.08 |  |  | 4.88
COc1ccc2c(c1OC/C=C(\C)CCC=C(C)C)C(C(Cl)(Cl)Cl)N1CCc3cc4c(cc3C1=C2)OCO4 (centres unmarked) [AB35405] | 2.13 | 2.34 | 20.3 | 0.76 | 2.46 | 1.76 | 3.12 | 13.1 | 16 | 0.88 | 18.3 | 0.92 | 0.92 | 3.86 | 
COc1ccc2c(c1OC)C(C(Cl)(Cl)Cl)N1CCc3cc4c(cc3C1=C2CCCc1ccccc1)OCO4 (centres unmarked) [AB35417] | 1.78 | 0.98 | 12.3 | 0.88 | 2.39 | 1.32 | 1.24 | 10.2 | 14.1 | 1.11 | 9.88 | 0.57 | 0.57 | 3.12 | 
COc1ccc2c(c1OCCCCN)C(C)N1CCc3cc4c(cc3C1=C2)OCO4 (centres unmarked) [AB35429] | 5.32 | 1.46 | 15.3 | 2.02 | 3.45 | 2.43 | 3.16 | 12.5 | 18.4 | 2.02 | 13.4 | 1.89 | 1.89 | 5.04 | 
COc1ccc2c(c1OCCCBr)C(C1CCCC1)N1CCc3cc4c(cc3C1=C2)OCO4 (centres unmarked) [AB35430] | 3.18 | 1.56 | 23.4 | 1.32 | 2.55 | 0.96 | 2.01 | 16.1 | 16.9 | 1.32 | 12.1 | 0.85 | 0.85 | 6.32 | 
COc1ccc2c(c1OCCCCl)C(C1CCCC1)N1CCc3cc4c(cc3C1=C2)OCO4 (centres unmarked) [AB35434] | 5.12 | 3.05 | > 30 | 3.15 | 2.98 | 2.32 | 2.46 | 22.2 | 25.7 | 2.64 | > 30 | 1.68 | 1.68 | 4.98 | 
COc1ccc2c(c1OC)C(C1CCCC1)N1CCc3cc4c(cc3C1=C2CCCc1ccccc1)OCO4 (centres unmarked) [AB35436] | 3.28 | 1.56 | 22.1 | 1.54 | 2.98 | 1.01 | 3.12 | 15.4 | > 30 | 1.89 | 11.4 | 1.27 | 1.27 | 5.32 | 
COc1ccc2c(c1OCCCCl)C(C(Cl)(Cl)Cl)N1CCc3cc4c(cc3C1=C2)OCO4 (centres unmarked) [AB35441] | 3.21 | 1.22 | > 30 | 2.32 | 1.98 | 0.98 | 3.16 | 16.5 | 24.4 | 1.56 | 12.3 | 1.01 | 1.01 | 2.98 | 
COc1ccc2c(c1OCCCCOc1ccccc1)C(C(Cl)(Cl)Cl)N1CCc3cc4c(cc3C1=C2)OCO4 (centres unmarked) [AB35476] | 3.69 | 1.11 | 18.3 | 0.89 | 2.46 | 0.85 | 1.32 | 12.3 | 15.8 | 1.32 | 14.2 | 0.99 | 0.99 | 4.56 | 
CCCC1=C2c3cc4c(cc3CCN2C(C2CCCC2)c2c1ccc(OC)c2OC)OCO4 (centres unmarked) [AB35504] | 4.96 | 3.56 | > 30 | 1.58 | 3.58 | 1.96 | 3.03 | 20.4 | > 30 | 3.12 | 25.6 | 2.22 | 2.22 | 6.76 | 
CCCOc1c(OC)ccc2c1C(C(Cl)(Cl)Cl)N1CCc3cc4c(cc3C1=C2)OCO4 (centres unmarked) [AB35506] | 2.66 | 2.13 | 19.9 | 1.66 | 3.88 | 1.56 | 3.59 | 10.3 | 25.5 | 1.27 | 14.1 | 0.83 | 0.83 | 2.52 | 
COc1ccc2c(c1N1CCC(C)CC1)C(C1CCCC1)N1CCc3cc4c(cc3C1=C2)OCO4 (centres unmarked) [AB35510] | 1.56 | 1.99 | 24.3 | 0.76 | 1.68 | 0.56 | 2.02 | 24.7 | 14.6 | 1.21 | 13.1 | 0.31 | 0.31 | 1.86 | 
